The values that follow come from PMC5830979, “Preclinical In Vitro and In Vivo Evaluation of [^18F]FE@SUPPY for Cancer PET Imaging: Limitations of a Xenograft Model for Colorectal Cancer” (Contrast Media & Molecular Imaging, 2018).

The Ki is a dissociation constant, usually derived from enzyme kinetics or from competition with a known ligand.

Series [1] addresses T1, hA1AR (Homo sapiens, UniProt P30542).
T1 sequence (P30542 1-326): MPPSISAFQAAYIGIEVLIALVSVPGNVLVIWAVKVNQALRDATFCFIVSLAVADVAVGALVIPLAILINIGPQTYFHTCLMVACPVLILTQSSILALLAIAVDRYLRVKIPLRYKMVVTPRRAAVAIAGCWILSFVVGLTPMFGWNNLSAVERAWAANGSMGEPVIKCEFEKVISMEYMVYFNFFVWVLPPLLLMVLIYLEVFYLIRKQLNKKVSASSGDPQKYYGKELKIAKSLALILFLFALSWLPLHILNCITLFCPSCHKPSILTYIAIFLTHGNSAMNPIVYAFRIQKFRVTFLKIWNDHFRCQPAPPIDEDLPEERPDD
The series can be described thus: Competitive binding assay, hA1AR membranes, [3H]DPCPX. Conditions: for Ki: read-out: Ki hA1AR, [3H]DPCPX […], DMSO up to 10%, n = 3–5 in triplicate.
Experimental: (§2) The assay was performed according to the manufacturer's instructions in a final volume of 500 μL. Increasing concentrations of test compounds were added, whereby the concentration of dimethyl sulfoxide (DMSO) in final assay volume remained ≤10% (hA1AR and hA2AAR assay) and ≤1% in the hA3AR assay. Nonspecific binding was determined using 1 μM DPCPX (hA1R assay), 1 μM SCH-442,416 (hA2AR assay), or 10 μM I-AB-MECA (hA3AR assay). Filtration through GF/B filters (Whatman®, presoaked in 0.1% PEI or 0.5% BSA) was performed using a cell harvester (Brandel®), and receptor-bound radioactivity was determined via gamma counting (2480 Wizard^2, PerkinElmer) or liquid scintillation counting (Hidex 300 SL). IC50 fitted binding curves were generated using the GraphPad Software 5.0, and Ki values were calculated using the Cheng-Prusoff equation.

Series [2] deals with hA2AAR (Homo sapiens, UniProt P29274). The series can be described thus: Competitive binding assay, hA2AAR membranes, [3H]CGS21680. Particulars: read-out: Ki hA2AAR; [3H]CGS21680 50 nM; DMSO up to 10%; n = 3–5 in triplicate.
Experimental: as §2
The target of series [3] is T2, hA3AR (Homo sapiens, UniProt P0DMS8).
T2 sequence (P0DMS8 1-318): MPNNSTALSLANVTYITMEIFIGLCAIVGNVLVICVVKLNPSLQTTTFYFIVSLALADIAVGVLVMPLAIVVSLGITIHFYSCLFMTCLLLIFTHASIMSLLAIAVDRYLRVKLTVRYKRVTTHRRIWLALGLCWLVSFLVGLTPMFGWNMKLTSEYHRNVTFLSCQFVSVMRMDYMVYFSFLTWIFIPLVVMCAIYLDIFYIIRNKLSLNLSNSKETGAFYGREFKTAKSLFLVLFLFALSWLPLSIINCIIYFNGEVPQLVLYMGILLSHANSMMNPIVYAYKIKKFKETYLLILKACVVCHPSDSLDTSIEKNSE
The series can be described thus: Competitive binding assay, hA3AR membranes, [125I]AB-MECA. Conditions: read-out: Ki hA3AR, [125I]AB-MECA 0.4 nM, DMSO ≤1%.
Experimental: as §2

Series [4] deals with HT-29 cells. Also on record: method as in PMID 17488804. Conditions: hypoxic conditions, through A3AR stimulation; cited from earlier work.
Series [5] concerns HT-29 cells. Further details: method as in PMID 23454010. Conditions: 1 µM, A3AR-dependent; cited from earlier work.
The test system of series [6] is HCT-116 cells. Further details: method as in PMID 23454010. Particulars: A3AR dependent; cited from earlier work.
Series [7] concerns rat A3AR. Also on record: method as in PMID 25242859. Particulars: cited from earlier work.
Series [8] deals with colorectal carcinoma tissue slices. The series can be described thus: Autoradiography of human colorectal carcinoma versus healthy colon tissue slices. Particulars: in 5 of 7 regions, two CRC patients, P < 0.05. It counts as binding. As for the experimental part:
Colorectal carcinoma tissue and adjacent healthy colon tissue were obtained directly after tumorectomy from two patients after full informed consent and quick-frozen in 2-methylbutane (−40°C). Tissue was sliced into 16 μm slices using a microcryotome (Thermo Scientific Microm HM 560) and stored at −80°C until usage. Depending on the sample size, 3 to 4 different regions were defined and analyzed by means of autoradiography and immunohistochemistry.
Tissue slices were thawed and reconstituted in assay buffer (50 mM Tris-HCl pH 7.4, 100 mM NaCl, 1 mM EDTA, 1% BSA, 1 unit adenosine deaminase/100 mL) for 30 min at RT. Radiosynthesis of [^18F]FE@SUPPY was performed as previously described and the product was physiologically formulated (EtOH/0.9% saline 10/90). Tissue slices were incubated with 50 kBq [^18F]FE@SUPPY (40–200 GBq/μmol) in 100 μL assay buffer for 1 h at RT. Slices were thoroughly washed with ice-cold wash buffer (50 mM Tris-HCl pH 7.4), dried, and exposed to a phosphor screen overnight. The readout of the phosphor storage screen was performed on a Cyclone Phosphor Imager (Perkin Elmer), and data analysis was performed using OptiQuant® Software as previously described. […] Differences among groups (colorectal cancer versus healthy colon) were analyzed using a two-tailed, unpaired Student's t-test with Welch's correction.

Series [9] in a line: In vitro stability in mouse plasma. It counts as in vitro ADME. Particulars: 120 min incubation at 37°C. As for the experimental part: (§1) Stability of [^18F]FE@SUPPY was tested against mouse liver microsomes, mouse S9 fraction, and mouse plasma (BD Sciences). Amount of intact tracer (%) was determined after 5, 10, 20, 40, 60, and 120 min using an Agilent series 1100/1200 HPLC system connected to a radioactivity detector (Raytest, Ramona Star) (n = 2 in triplicate). The assay was conducted as previously described for respective rat and human enzymes.

Series [10] is described as follows: In vitro stability against mouse S9 fraction. Type of series: in vitro ADME. Particulars: mouse liver homogenates (S9 fraction), 120 min. The procedure: as §1
A short description of series [11]: In vitro stability against mouse liver microsomes. Type of series: in vitro ADME. Conditions: purified mouse liver microsomes, 120 min. As for the experimental part: as §1
(In general: Microsomes from liver hold many membrane-bound enzymes, among them those of drug oxidation.)

Series [12] is described as follows: Ex vivo blood stability in BALB/c mice. Particulars: 70 min after retroorbital injection. As for the experimental part:
Radiosynthesis was performed as described elsewhere and the product was processed as follows: ethanol was totally evaporated and the dry product was again physiologically formulated in 1.5–2 mL Tween-20/EtOH/0.9% saline 1/9/90 to obtain activity concentrations of approximately 1 GBq/mL. Healthy BALB/c mice were injected with 18 ± 2 MBq (molar activity = 70–200 GBq/μmol) retroorbitally and sacrificed after 5, 10, 20, 40, and 70 min (n = 3 for each time point). Blood samples were collected and immediately precipitated using acetonitrile/methanol (10 : 1) and centrifuged (12,000 rpm, 5 min, 4°C). The obtained supernatants were subjected to radio-HPLC as previously described.

Series [13] can be described thus: Ex vivo biodistribution in BALB/c mice. Conditions: 70 min after tracer application, n = 3. As for the experimental part:
Ex vivo biodistribution of [^18F]FE@SUPPY was assessed 70 min after tracer application in BALB/c mice. Radioactivity was determined using a gamma counter (2480 Wizard^2, PerkinElmer), organs were wet-weighted, and percentage of injected dose per gram of organ was calculated (%ID/g).

In series [14] the test system is HT-29 xenografts. The series can be described thus: µPET imaging of HT-29 / CHO-K1 xenograft-bearing CB17-SCID mice. It counts as in vivo. Particulars: µPET 60 min, baseline. The procedure:
After 10 to 14 days upon arrival, CB17-SCID mice were injected subcutaneously with 2 × 10^6 HT-29 cells into one flank and 2 × 10^6 CHO-K1 cells in the opposite flank (n = 9). Body weight and tumor development were monitored every second day by caliper measurement. The respective tumor volume was calculated according to the following equation: tumor volume (mm^3) = d^2 × D/2 (where d is the shortest diameter and D the longest diameter). Animals were subjected to μPET imaging 10 days after inoculation, when tumors reached a volume of at least 300 mm^3. Tumor volume never exceeded 1 cm^3.
Xenograft-bearing CB17-SCID mice were anesthetized using isoflurane (2.5%) mixed with oxygen (1.5 L/min) to avoid movement during the imaging. Blocking agents (2 mg/kg BW FE@SUPPY or MRS1523) or the respective vehicle control (Tween-20/EtOH/0.9% physiological saline 1/9/90) was administered retroorbitally 2 min prior to the radiotracer administration (n = 3 per group). Subsequently, the animals received another retroorbital injection of 17.42 ± 4.5 MBq [^18F]FE@SUPPY into the venous plexus of the opposite eye. With a minor delay after the application of the radiotracer (2-3 min), mice were placed into the field of view of the scanner (μPET/CT Inveon, Siemens Medical Solution, Knoxville, USA), and dynamic imaging was performed for 60 min to follow tracer distribution. Vital parameters (respiration, body temperature) were continuously monitored using a dedicated monitoring unit (bioVet; m2m imaging, Cleveland, OH, USA) to ensure the depth of anesthesia and wellbeing of the animals.

Details of series [15]: method as in PMID 25601336. Particulars: rats, after 60 min; cited from earlier work.

Where two headings read alike, the source gives them in different places.

hA2AAR, sequence (P29274 whole entry): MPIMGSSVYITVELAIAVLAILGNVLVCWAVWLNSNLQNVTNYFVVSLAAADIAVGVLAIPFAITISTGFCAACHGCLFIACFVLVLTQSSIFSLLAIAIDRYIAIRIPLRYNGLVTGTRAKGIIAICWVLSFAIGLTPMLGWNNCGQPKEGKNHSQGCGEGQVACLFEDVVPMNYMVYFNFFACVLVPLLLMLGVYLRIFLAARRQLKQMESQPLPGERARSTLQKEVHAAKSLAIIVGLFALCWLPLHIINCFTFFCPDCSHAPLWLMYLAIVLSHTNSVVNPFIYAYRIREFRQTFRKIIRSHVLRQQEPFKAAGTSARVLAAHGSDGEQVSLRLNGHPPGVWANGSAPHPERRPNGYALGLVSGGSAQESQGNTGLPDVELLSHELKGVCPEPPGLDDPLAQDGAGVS

With `CCSC(=O)c1c(CC)nc(-c2ccccc2)c(C(=O)OCCF)c1CC` [FE@SUPPY], the figures for the inhibitory constant (Ki) in [1], in series [2] and in [3] (n = 3) were 4.03 ± 1 µM, 1.72 ± 0.4 µM and 0.00602 ± 0.0004 µM, respectively.
On to `Cn1c(=O)c2c(ncn2C)n(C)c1=O` [caffeine], for which, in series [4], the “effect on HIF-1 protein and VEGF expression” value is “leads to hypoxia-inducible factor-1 (HIF-1) protein accumulation and increased vascular endothelial growth factor (VEGF) expression”.
With `CNC(=O)[C@H]1O[C@@H](n2cnc3c(NCc4cccc(I)c4)ncnc32)[C@H](O)[C@@H]1O` [IB-MECA], in [5], the “effect on cell growth” value is listed as “growth promoting effect”. Further, the effect on cells result in series [6] is reported as “causes cell apoptosis”.
Take `CCSC(=O)c1c(CC)nc(-c2ccccc2)c(C(=O)O)c1CC` [DFE@SUPPY]: the hA1/hA3AR selectivity ratio in series [1] (ratio of Ki values) was 324. For the same molecule, the Ki turned out to be 5.46 ± 0.4 µM in series [1], 37.1 ± 16 µM in [2] and 2.58 ± 1.2 µM in series [3] (n = 3–5 in triplicate).
Take `Nc1ncnc2c1ncn2[C@@H]1O[C@H](CO)[C@@H](O)[C@H]1O` [adenosine]: the “affinity for the A3AR” value in series [7] is recorded as ~ 1 µM.
Turning to `CCSC(=O)c1c(CC)nc(-c2ccccc2)c(C(=O)OCC[18F])c1CC` [[^18F]FE@SUPPY, 5-(2-[18F]fluoroethyl) 2,4-diethyl-3-(ethylsulfanylcarbonyl)-6-phenylpyridine-5-carboxylate], in series [8], the “higher binding in colorectal carcinoma versus healthy colon tissue of the same patient” value was at least 2.3 fold. Further, the intact tracer in [9] was found to be 92.6 ± 0.7%. Also, the intact tracer in series [10] was 66.9 ± 6.7%. The same molecule came in with an intact tracer in [11] of 31.4 ± 7.8%. The “intact tracer in blood (ex vivo)” value in [12] came to 2.2 ± 0.4%. In series [13], the “accumulation in bile fluid” value stood at 162.78 ± 37.51 % ID/g, the accumulation in brain was 0.23 ± 0.03 % ID/g, the accumulation in heart came out at 1.13 ± 0.04 % ID/g and the accumulation in kidneys was 2.67 ± 0.24 % ID/g. Besides, in series [13], the accumulation in liver is given as 14.57 ± 0.20 % ID/g, the accumulation in lung worked out at 1.50 ± 0.23 % ID/g, the accumulation in urine is recorded as 43.33 ± 9.23 % ID/g and the “circulating radioactivity in blood” value came out at 1.6 ± 0.1 % ID/g. Further, in series [14] (CB17-SCID mice), the “SUV CHO-K1 xenograft tumor (hA3AR negative control)” value turned out to be 0.25 ± 0.33, the “SUV HT-29 xenograft tumor” value is on record as 0.23 ± 0.06, the SUV bile fluid was found to be 21.85 ± 10.63 and the SUV blood was determined as 1.21 ± 0.11. The SUV urine in [14] (CB17-SCID mice) was found to be 8.86 ± 3.44. Also, in [14] (xenograft-bearing CB17-SCID mice), the SUV liver was 6.68 ± 0.80. For the same molecule, the “intact tracer in plasma” value in [15] was 25.8 ± 5.3%.
